Results: PMC6263338, “Synthesis of Some Phenylpropanoid Glycosides (PPGs) and Their Acetylcholinesterase/Xanthine Oxidase Inhibitory Activities” (Molecules, 2011)
“Also recorded” adds a separate entry of the source. Where two headings read alike, the source gives them in different places.

How the values were obtained:
[1] = target: T1, Xanthine Oxidase (from buttermilk) (Bos taurus, UniProt P80457); assay: In vitro XOD inhibitory activity (Xanthine Oxidase Detection Kit); assay type: biochemical; conditions: for inhibition at 1500 µg/mL: read-out: XOD inhibitory activity % inhibition (1.5 mg/mL); for XOD inhibitory activity % inhibition (1.5 mg/mL): compounds in 1% DMSO, mean ± SD, triplicate; for XOD inhibitory activity (in words): summary of Table 1
T1 construct: Xanthine Oxidase (from buttermilk, Sigma Co., Ltd. X4875); purchased Sigma Co., Ltd. X4875; host or cells: buttermilk
Protocol: (§1) In vitro inhibitory activity test of these glycosides against AChE and XOD was studied by using Acetylcholinesterase Detection Kit and Xanthine Oxidase Detection Kit.
Assay of the in vitro AChE/XOD inhibitory activity: The tests of in vitro inhibitory activity of these PPGs against AChE (from drosophila, Jing Peng Bio-Pesticide Co., Ltd. Shandong, P. R. China) and Xanthine Oxidase (from buttermilk, Sigma Co., Ltd. X4875) were carried out by using AChE (or XOD) Detection Kits (Jian Cheng Bioengineering Institute, Nan Jin, Jiangsu, P. R. China), following the manufacturer’s protocol. All the compounds were dissolved in 1% DMSO. […] If an inhibition of more than 30% was observed, the compound was classified as active. The active compounds were consequently tested at seven concentrations. The results were read on a microplate reader at the wavelength of 450 nm/530 nm. All the assays were performed in triplicate with three independent experiments. The IC50 values were calculated using XLfit software.

AChE (from drosophila) = target: T2, AChE (from drosophila) (Drosophila melanogaster, UniProt P07140); assay: In vitro AChE inhibitory activity (Acetylcholinesterase Detection Kit); assay type: biochemical; conditions: for inhibition at 1500 µg/mL: read-out: AChE inhibitory activitiy % inhibition (1.5 mg/mL); for inhibitory activities toward cholinesterase (in words): summary of Table 1
T2 construct: purchased Jing Peng Bio-Pesticide Co., Ltd. Shandong, P. R. China
Protocol: as §1
Assay of the in vitro AChE/XOD inhibitory activity: The tests of in vitro inhibitory activity of these PPGs against AChE (from drosophila, Jing Peng Bio-Pesticide Co., Ltd. Shandong, P. R. China) and Xanthine Oxidase (from buttermilk, Sigma Co., Ltd. X4875) were carried out by using AChE (or XOD) Detection Kits (Jian Cheng Bioengineering Institute, Nan Jin, Jiangsu, P. R. China), following the manufacturer’s protocol. All the compounds were dissolved in 1% DMSO. […] The results were read on a microplate reader at the wavelength of 450 nm/530 nm. All the assays were performed in triplicate with three independent experiments. The IC50 values were calculated using XLfit software.

[2] = seven concentrations, mean ± SD of triplicate independent experiments, – = not active
[3] = read-out: AChE inhibitory activitiy IC50, seven concentrations, mean ± SD of triplicate independent experiments, – = not active
[4] = 1.5 mg/mL, compounds in 1% DMSO, mean ± SD, triplicate
[5] = read-out: XOD inhibitory activity IC50, seven concentrations, mean ± SD of triplicate independent experiments, – = not active
[6] = seven concentrations, mean ± SD of triplicate independent experiments, – = not active, read-out: AChE inhibitory activitiy IC50

Compound	inhibition at 1500 µg/mL [1]	XOD inhibitory activity IC50 (μM) [1, 2]	IC50 (AChE (from drosophila); [3])	inhibition at 1500 µg/mL (AChE (from drosophila); [4])	AChE inhibitory activitiy IC50 (μM) (AChE (from drosophila); [2])	IC50 [1, 5]	IC50 (AChE (from drosophila); [6])	other results
COc1cc(C=CCO[C@@H]2O[C@H](CO)[C@@H](O)[C@H](O)[C@H]2O)ccc1O [Compound 16c, 4-Hydroxy-3-methoxycinnamyl β-D-glucopyranoside]	23 ± 0.93%	– (not active (less than 30% inhibition at 1.5 mg/mL))	25.7 ± 0.7 µM					inhibition at 1500 µg/mL (AChE (from drosophila)): 54 ± 2.34%
OC[C@H]1O[C@@H](OCC=Cc2ccccc2F)[C@H](O)[C@@H](O)[C@@H]1O [Compound 10i, 2-Fluorocinnamyl β-D-glucopyranoside]	24 ± 1.32%	– (not active (less than 30% inhibition at 1.5 mg/mL))		18 ± 2.11%	– (not active (less than 30% inhibition at 1.5 mg/mL))			
4-Trifluoromethycinnamyl β-D-glucopyranoside [Compound 10f]		– (not active (less than 30% inhibition at 1.5 mg/mL))			– (not active (less than 30% inhibition at 1.5 mg/mL))			XOD inhibitory activity % inhibition (1.5 mg/mL) [1]: 5 ± 0.22%; AChE inhibitory activitiy % inhibition (1.5 mg/mL) (AChE (from drosophila); [4]): 22 ± 2.44%
OC[C@H]1O[C@@H](OCC=Cc2ccc(Br)cc2)[C@H](O)[C@@H](O)[C@@H]1O [Compound 10l, 4-Bromocinnamyl β-D-glucopyranoside]	55 ± 3.67%		22.4 ± 0.6 µM	57 ± 1.22%		19.6 ± 1.5 µM		XOD inhibitory activity (in words) [1]: have XOD inhibitory activity; inhibitory activities toward cholinesterase (in words) (AChE (from drosophila)): moderate inhibitory activities
O[C@@H]1[C@@H](O)[C@H](OC/C=C/c2ccccc2)O[C@H](CO[C@@H]2OC[C@H](O)[C@H](O)[C@H]2O)[C@H]1O [Compound 20, Rosavin]	73 ± 0.02%			85 ± 0.21%			1.72 ± 0.1 µM	IC50 [1]: 5.55 µM
COc1cc(C=CCO[C@@H]2O[C@H](CO)[C@@H](O)[C@H](O)[C@H]2O)cc(OC)c1OC [Compound 10h, 3,4,5-Trimethoxycinnamyl β-D-glucopyranoside]	33 ± 2.16%			17 ± 4.33%	– (not active (less than 30% inhibition at 1.5 mg/mL))			IC50 [1]: 69.3 ± 1.3 µM
COc1ccc(C=CCO[C@@H]2O[C@H](CO[C@@H]3OC[C@H](O)[C@H](O)[C@H]3O)[C@@H](O)[C@H](O)[C@H]2O)cc1 [Compound 22, 4-Methoxycinnamyl 6-O-(α-L-arabinopyranosyl)-β-D-glucopyranoside]	65 ± 0.1%			72 ± 0.1%		5.71 ± 0.1 µM	4.23 ± 0.1 µM	
OC[C@H]1O[C@@H](OCC=Cc2ccc(Cl)cc2)[C@H](O)[C@@H](O)[C@@H]1O [Compound 10j, 4-Chlorocinnamyl β-D-glucopyranoside]	50 ± 2.35%		38.3 ± 1.4 µM	42 ± 3.23%		24.3 ± 1.4 µM		XOD inhibitory activity (in words) [1]: have XOD inhibitory activity
O[C@@H]1[C@@H](O)[C@H](OCC=Cc2ccccc2)O[C@H](CO[C@@H]2OC[C@@H](O)[C@H](O)[C@H]2O)[C@H]1O [Compound 21, Cinnamyl 6-O-(β-D-xylopyranosyl)-β-D-glucopyranoside]	74 ± 0.12%		3.71 ± 0.1 µM	82 ± 0.11%		4.56 ± 0.1 µM		
3-Bromo-4-ethoxy-5-methoxycinnamylcinnamyl β-D-glucopyranoside [Compound 10n]							87.3 ± 2.1 µM	XOD inhibitory activity % inhibition (1.5 mg/mL) [1]: 28 ± 1.74%; IC50 ([1]; seven concentrations, mean ± SD of triplicate independent experiments, – = not active, read-out: XOD inhibitory activity IC50): 97.3 ± 0.8 µM; AChE inhibitory activitiy % inhibition (1.5 mg/mL) (AChE (from drosophila); [4]): 36 ± 3.55%
COc1ccc(C=CCO[C@@H]2O[C@H](CO)[C@@H](O)[C@H](O)[C@H]2O)cc1OC [Compound 10d, 3,4-Dimethoxycinnamyl β-D-glucopyranoside]	35 ± 3.22%			43 ± 1.35%			43.5 ± 0.6 µM	IC50 [1]: 73.5 ± 1.5 µM
COc1ccccc1C=CCO[C@@H]1O[C@H](CO)[C@@H](O)[C@H](O)[C@H]1O [Compound 10b, 2-Methoxycinnamyl β-D-glucopyranoside]	12 ± 3.12%	– (not active (less than 30% inhibition at 1.5 mg/mL))		62 ± 4.53%				IC50 (AChE (from drosophila)): 15.5 ± 2.1 µM; inhibitory activities toward cholinesterase (in words) (AChE (from drosophila)): moderate inhibitory activities; also recorded: more potent than the corresponding unsubstituted compound 10m
COc1cc(C=CCO[C@@H]2O[C@H](CO)[C@@H](O)[C@H](O)[C@H]2O)cc(OC)c1 [Compound 10c, 3,5-Dimethoxycinnamyl β-D-glucopyranoside]	21 ± 1.21%	– (not active (less than 30% inhibition at 1.5 mg/mL))		23 ± 0.85%	– (not active (less than 30% inhibition at 1.5 mg/mL))			
COc1cccc(C=CCO[C@@H]2O[C@H](CO)[C@@H](O)[C@H](O)[C@H]2O)c1OC [Compound 10e, 2,3-Dimethoxycinnamyl β-D-glucopyranoside]	22 ± 0.85%	– (not active (less than 30% inhibition at 1.5 mg/mL))	71.2 ± 2.8 µM	34 ± 4.36%				
OC[C@H]1O[C@@H](OCC=Cc2ccc(O)cc2)[C@H](O)[C@@H](O)[C@@H]1O [Compound 16a, 4-Hydroxycinnamyl β-D-glucopyranoside]	32 ± 1.63%			34 ± 2.67%			75.2 ± 1.2 µM	IC50 [1]: 79.3 ± 0.7 µM
COc1ccc(C=CCO[C@@H]2O[C@H](CO)[C@@H](O)[C@H](O)[C@H]2O)cc1 [Compound 10a, 4-Methoxycinnamyl β-D-glucopyranoside]	10 ± 2.22%	– (not active (less than 30% inhibition at 1.5 mg/mL))		15 ± 3.27%	– (not active (less than 30% inhibition at 1.5 mg/mL))			
OC[C@H]1O[C@@H](OCC=Cc2ccc3c(c2)OCO3)[C@H](O)[C@@H](O)[C@@H]1O [Compound 10g, 3,4-Methylenedioxycinnamyl β-D-glucopyranoside]	13 ± 1.43%	– (not active (less than 30% inhibition at 1.5 mg/mL))		15 ± 3.55%	– (not active (less than 30% inhibition at 1.5 mg/mL))			
OC[C@H]1O[C@@H](OC/C=C/c2ccccc2)[C@H](O)[C@@H](O)[C@@H]1O [Compound 10m, Cinnamyl β-D-glucopyranoside]	38 ± 2.83%			16 ± 0.44%	– (not active (less than 30% inhibition at 1.5 mg/mL))	93.2 ± 1.4 µM		
OC[C@H]1O[C@@H](OCC=Cc2cccc(O)c2)[C@H](O)[C@@H](O)[C@@H]1O [Compound 16b, 3-Hydroxycinnamyl β-D-glucopyranoside]	41 ± 2.22%		7.62 ± 1.1 µM	75 ± 2.12%		29.6 ± 1.2 µM		XOD inhibitory activity (in words) [1]: have XOD inhibitory activity
C[C@@H]1O[C@@H](OC[C@H]2O[C@@H](OCC=Cc3ccccc3)[C@H](O)[C@@H](O)[C@@H]2O)[C@H](O)[C@H](O)[C@H]1O [Compound 23, Cinnamyl 6-O-(α-L-rhamnopyranosyl)-β-D-glucopyranoside]	60 ± 0.01%			81 ± 0.05%		8.21 µM	2.05 µM	
OC[C@H]1O[C@@H](OCC=Cc2ccc(F)c(F)c2)[C@H](O)[C@@H](O)[C@@H]1O [Compound 10k, 3,4-Difluorocinnamyl β-D-glucopyranoside]	37 ± 2.78%			43 ± 2.31%		55.4 ± 1.3 µM	35.5 ± 1.1 µM	
COc1ccc(C=CCO[C@@H]2O[C@H](CO)[C@@H](O)[C@H](O)[C@H]2O)cc1O [Compound 16d, 3-Hydroxy-4-methoxycinnamyl β-D-glucopyranoside]	56 ± 2.34%		10.3 ± 2 µM	66 ± 3.45%		16.5 ± 1.1 µM		XOD inhibitory activity (in words) [1]: have XOD inhibitory activity
